The subject of series [1] is human tumor cell line. As to the kind of experiment: Cytotoxicity testing, cytopathic effect. Set-up: key: 1: slight change in morphology vs. control; 2: occasional rounding, vacuolization, or granularity; 3: rounding, vacuolization, detachment of 50% of cells; 4: destruction of monolayer. It counts as cell-based. Here is the method: (§1) Cytotoxicity Testing of Basiliskamide A: Serial dilutions of basiliskamide A were prepared in cell culture medium and tested for toxicity for normal human fibroblast cells and for human tumor cell line. […] The appearance of the cells was assessed after 48 hours exposure to the compounds. Basiliskamide produced no cytotoxicity for normal human fibroblast cells at concentrations less than 100 μg/ml compared to amphotericin B (ampho) which was toxic at concentrations as low as 25 μg/ml.

Series [2] deals with Clinical Isolates of Candida albicans. Kind of series: Macrobroth dilution against 7 clinical isolates. (In general: In broth dilution the organism is exposed to a series of concentrations in liquid medium.)
The subject of series [3] is normal human fibroblast cells. As to the kind of experiment: Cytotoxicity testing, cytopathic effect. It counts as cell-based. Set-up: key to Cytopathic Effect (48 hours): 1: slight change in morphology vs. control; 2: occasional rounding, vacuolization, or granularity; 3: rounding, vacuolization, detachment of 50% of cells; 4: destruction of monolayer. The conditions noted are these: for Cytopathic Effect (48 hours): Human Fibroblast. As to the method:
as §1
(In general: Cytopathic effects are the visible damage that an infection or toxin causes in cultured cells.)

Series [4] has as its system M. avium-intracellulare. It is filed as cell-based, Mycobacterium avium-infracellulare. The conditions noted are these: agar dilution.
Series [5] deals with Mycobacterium tuberculosis. The conditions noted are these: agar dilution. (In general: In agar dilution, organisms are placed on agar that contains the substance at set levels.)
Description: (§2) Antimycobacterial Activity of the Basiliskamides: The Basiliskamides were tested for antimycobacierial activity using a standardized agar dilution method (Underlied, C B and Salfinger, S. 1995. In Manual of Clinical Microbiology, Murray, Baron, Pfaller, Tenover, Yolken (Eds.), ASM Press, page 1395-1404).
Series [6] concerns Aspergillus fumigatus. Kind of series: Antifungal agar dilution.
The subject of series [7] is Trichophyton rubrum. As to the kind of experiment: Antifungal macrobroth dilution (NCCLS M27-A). The conditions noted are these: read-out: Minimal Inhibitory Concentration.
In series [8] the test system is Mycobacterium tuberculosis. As to the kind of experiment: microbe, parasite or virus in culture. The conditions noted are these: read-out: Minimal Inhibitory Concentration.
Description: as §2
For series [9], the system named is Aspergillus fumigatus. Kind of series: Antifungal macrobroth dilution (NCCLS M27-A). As to conditions: read-out: Minimal Inhibitory Concentration.
Series [10] concerns Trichophyton rubrum. As to the kind of experiment: Antifungal agar dilution. The conditions noted are these: read-out: Minimal Inhibitory Concentration.
In series [11] the test system is Candida albicans. As to the kind of experiment: Antifungal macrobroth dilution (NCCLS M27-A). As to conditions: read-out: Minimal Inhibitory Concentration.
For series [12], the system named is Candida albicans. Kind of series: Antifungal agar dilution.
Where [13] appears, read: read-out: Minimal Inhibitory Concentration.

Molecules are shown by their SMILES. In brackets after ≈: the same amount, converted by molar mass.

On to `C[C@@H]1[C@H](O)[C@@H](C)/C=C/C=C/C=C/C=C/C=C/C=C/C=C/[C@H](O[C@@H]2O[C@H](C)[C@@H](O)[C@H](N)[C@@H]2O)C[C@@H]2O[C@](O)(C[C@@H](O)C[C@@H](O)[C@H](O)CC[C@@H](O)C[C@@H](O)CC(=O)O[C@H]1C)C[C@H](O)[C@H]2C(=O)O` [Amphotericin B], for which the “Cytopathic Effect (48 hours)” value stood at 0 in series [1] (0.78 μg/ml); 0 in [1] (1.57 μg/ml); 0 in [1] (3.12 μg/ml); 0 in series [1] (6.25 μg/ml); 0 in [1] (12.5 μg/ml); 1 in series [1] (25 μg/ml). Further, the “Cytopathic Effect (48 hours)” value in series [1] (50 μg/ml) turned out to be 3; in [1] (100 μg/ml), 4; in series [3] (0.78 μg/ml), 0; in series [3] (1.57 μg/ml) it was 0; in series [3] (3.12 μg/ml), 0; in [3] (6.25 μg/ml) it was 0. Moreover, the “Cytopathic Effect (48 hours)” value turned out to be 1 in series [3] (12.5 μg/ml), 2 in [3] (25 μg/ml), 2 in series [3] (50 μg/ml) and 4 in series [3] (100 μg/ml). The “Minimal Inhibitory Concentration” value in series [2] (C. albicans clinical isolate 8167), in series [2] (C. albicans clinical isolate 8362), in [2] (C. albicans clinical isolate 8363), in series [2] (C. albicans clinical isolate 8364), in [2] (C. albicans clinical isolate 8365) and in series [2] (C. albicans clinical isolate 8366) was 0.5 µg/mL each time. Further, the “Minimal Inhibitory Concentration” value in series [2] (C. albicans clinical isolate 8367) is 0.5 µg/mL. Also, the “concentrations at which toxic” value in series [3] (normal human fibroblast cells, 48 hours exposure) is at least 25000 ng/mL.

`CC[C@@H](C)[C@H](O)[C@H](C)[C@@H](C/C=C/C=C\C(N)=O)OC(=O)/C=C/c1ccccc1` [Basiliskamide B]: the MIC was over 100 µg/mL in series [4] (Mycobacterium, M. avium-intracellulare, read-out: Minimal Inhibitory Concentration); 5 µg/mL (≈ 13 µM) in series [6] (setting [13]); 4 µg/mL (≈ 10.4 µM) in [7]; 50 µg/mL (≈ 130 µM) in series [8]; at least 32 µg/mL in series [9]; 5 µg/mL (≈ 13 µM) in series [10]. Also, the results for the MIC in series [11] and in series [12] (setting [13]) were at least 32 µg/mL and 3.1 µg/mL (≈ 8.04 µM), respectively. The “activity against M. avium-intracellulare (in words)” value in series [4] was “relatively inactive”. Further, in series [5], the “activity against M. tuberculosis (in words)” value is given as “have activity”. For the same molecule, the “activity relative to YL-03709B-A” value in series [6] (agar dilution, from Table 5) is listed as “significantly more active”; in series [12] (agar dilution, from Table 5), “significantly more active”.
